Data on four compounds can be found in ChEMBL document CHEMBL1156466, “NHE1 inhibition by amiloride- and benzoylguanidine-type compounds. Inhibitor binding loci deduced from chimeras of NHE1 homologues with endogenous differences in inhibitor sensitivity” (J Biol Chem, 2007).

Assay [1] deals with T1, Sodium/hydrogen exchanger (Pseudopleuronectes americanus) (UniProt Q804I7).
T1 sequence (whole entry): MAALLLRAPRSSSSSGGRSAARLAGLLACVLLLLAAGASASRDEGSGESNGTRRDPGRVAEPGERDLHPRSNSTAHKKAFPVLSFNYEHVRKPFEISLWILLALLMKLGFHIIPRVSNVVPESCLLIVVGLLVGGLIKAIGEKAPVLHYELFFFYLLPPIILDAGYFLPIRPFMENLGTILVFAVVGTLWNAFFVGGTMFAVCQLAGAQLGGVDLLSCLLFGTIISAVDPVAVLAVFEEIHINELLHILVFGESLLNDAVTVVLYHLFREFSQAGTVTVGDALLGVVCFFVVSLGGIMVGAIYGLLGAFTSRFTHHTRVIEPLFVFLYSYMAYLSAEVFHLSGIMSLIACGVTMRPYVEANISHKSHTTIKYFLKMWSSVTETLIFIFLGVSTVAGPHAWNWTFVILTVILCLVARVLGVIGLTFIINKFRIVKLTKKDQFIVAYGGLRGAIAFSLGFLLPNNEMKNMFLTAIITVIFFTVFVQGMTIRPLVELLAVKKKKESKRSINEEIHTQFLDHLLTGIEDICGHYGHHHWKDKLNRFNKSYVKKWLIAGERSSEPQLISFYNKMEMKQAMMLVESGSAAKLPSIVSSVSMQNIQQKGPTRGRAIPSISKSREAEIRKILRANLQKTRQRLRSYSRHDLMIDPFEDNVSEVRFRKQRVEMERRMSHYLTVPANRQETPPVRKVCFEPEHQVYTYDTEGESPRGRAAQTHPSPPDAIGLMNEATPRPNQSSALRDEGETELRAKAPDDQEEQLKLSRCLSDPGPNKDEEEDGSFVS
The experiment in a line: Inhibition of osmotic cell shrinkage-induced NHE1 activity in Pleuronectes americanus RBC at 1 mM.

Assay [2] deals with Sodium/hydrogen exchanger (Amphiuma tridactylum, UniProt Q9W6Q1). In words: (§1) Inhibition of Amphiuma tridactylum wild type NHE1 expressed in chinese hamster AP1 cells assessed as intracellular pHi recovery by ammonium chloride prepulse protocol. Format: cell-based.
Sodium/hydrogen exchanger, sequence (Q9W6Q1 whole entry, the tested form may be a part): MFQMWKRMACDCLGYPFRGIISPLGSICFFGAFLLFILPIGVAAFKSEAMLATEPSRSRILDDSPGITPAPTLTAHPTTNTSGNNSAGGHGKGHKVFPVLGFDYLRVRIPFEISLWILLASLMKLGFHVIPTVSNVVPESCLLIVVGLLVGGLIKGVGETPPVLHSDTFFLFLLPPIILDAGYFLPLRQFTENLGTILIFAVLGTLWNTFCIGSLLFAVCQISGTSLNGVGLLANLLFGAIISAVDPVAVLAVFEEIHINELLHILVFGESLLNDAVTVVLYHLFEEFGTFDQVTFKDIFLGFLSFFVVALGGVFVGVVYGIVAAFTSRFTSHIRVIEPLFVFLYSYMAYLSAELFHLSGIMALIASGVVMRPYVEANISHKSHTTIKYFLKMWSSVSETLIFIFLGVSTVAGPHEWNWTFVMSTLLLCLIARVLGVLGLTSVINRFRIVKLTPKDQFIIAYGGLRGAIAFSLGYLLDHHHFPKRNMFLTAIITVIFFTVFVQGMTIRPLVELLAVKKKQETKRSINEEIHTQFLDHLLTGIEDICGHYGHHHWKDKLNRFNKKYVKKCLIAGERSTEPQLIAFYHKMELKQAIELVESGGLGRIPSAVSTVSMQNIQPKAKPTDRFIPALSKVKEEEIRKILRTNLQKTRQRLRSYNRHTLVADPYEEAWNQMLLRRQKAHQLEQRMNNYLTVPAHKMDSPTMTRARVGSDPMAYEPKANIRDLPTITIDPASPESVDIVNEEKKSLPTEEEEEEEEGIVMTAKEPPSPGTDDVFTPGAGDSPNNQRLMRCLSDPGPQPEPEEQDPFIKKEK
Assay [3] has as its system AP1. The experiment in a line: Inhibition of Pleuronectes americanus NHE1 C-terminal mutant containing TM7 domain of Amphiuma tridactylum expressed in chinese hamster AP1 cells assessed as intracellular pHi recovery by ammonium chloride prepulse protocol. Format: cell-based.
Assay [4] is described as follows: (§2) Inhibition of Pleuronectes americanus NHE1 C-terminal mutant containing TM10 domain of Amphiuma tridactylum expressed in chinese hamster AP1 cells assessed as intracellular pHi recovery by ammonium chloride prepulse protocol. Format: cell-based.
The nature of assay [5]: (§3) Inhibition of Pleuronectes americanus NHE1 mutant containing TM10-12 domain of Amphiuma tridactylum expressed in chinese hamster AP1 cells assessed as intracellular pHi recovery by ammonium chloride prepulse protocol. Format: cell-based.
Assay [6] is described as follows: (§4) Inhibition of Amphiuma tridactylum NHE1 mutant containing TM10-12 domain of Pleuronectes americanus expressed in chinese hamster AP1 cells assessed as intracellular pHi recovery by ammonium chloride prepulse protocol. Format: cell-based.
A short description of assay [7]: (§5) Inhibition of Pleuronectes americanus NHE1 TM4 mutant containing VFFLF sequence of human expressed in chinese hamster AP1 cells assessed as intracellular pHi recovery by ammonium chloride prepulse protocol. Format: cell-based.
Assay [8] relates to AP1. In words: Inhibition of Pleuronectes americanus NHE1 TM4 mutant containing TFFLF sequence of Amphiuma tridactylum expressed in chinese hamster AP1 cells assessed as intracellular pHi recovery by ammonium chloride prepulse protocol. Format: cell-based.
The test system of assay [9] is AP1. The experiment in a line: Inhibition of Pleuronectes americanus NHE1 C-terminal mutant with replacement of residues C-terminal to 489 position with corresponding residues of Amphiuma tridactylum expressed in chinese hamster AP1 cells assessed as intracellular pHi recovery by ammonium chloride prepulse protocol. The assay is classed as cell-based.
Assay [10] has as its target Sodium/hydrogen exchanger (Amphiuma tridactylum) (UniProt Q9W6Q1). In words: Inhibition of osmotic cell shrinkage-induced NHE1 activity in Amphiuma tridactylum RBC at 100 uM.
Assay [11] has as its target T1, Sodium/hydrogen exchanger (Pseudopleuronectes americanus). The experiment in a line: Inhibition of osmotic cell shrinkage-induced NHE1 activity in Pleuronectes americanus RBC at 20 uM.
Assay [12] shares this target. The experiment in a line: Inhibition of Pleuronectes americanus wild type NHE1 expressed in chinese hamster AP1 cells assessed as intracellular pHi recovery by ammonium chloride prepulse protocol. Format: cell-based.
For assay [13], the target named is Sodium/hydrogen exchanger (Amphiuma tridactylum) (UniProt Q9W6Q1). Described as §1. The assay is classed as cell-based.
Sodium/hydrogen exchanger (Amphiuma tridactylum), sequence (Q9W6Q1 as listed by the source): as the sequence (Q9W6Q1 whole entry, the tested form may be a part) above
Assay [14] concerns the target Sodium/hydrogen exchanger 1 (Homo sapiens, UniProt P19634). The experiment in a line: Inhibition of human wild type NHE1 expressed in chinese hamster AP1 cells assessed as intracellular pHi recovery by ammonium chloride prepulse protocol. Format: cell-based.
The test system of assay [15] is AP1. The description is as §2. Format: cell-based.
In assay [16] the test system is AP1. The description is as §3. The assay is classed as cell-based.
Assay [17] concerns AP1. The assay is described as §4. Format: cell-based.
Assay [18] relates to AP1. The description is as §5. Format: cell-based.
The target in assay [19] is Sodium/hydrogen exchanger (Amphiuma tridactylum) (UniProt Q9W6Q1). The experiment in a line: Inhibition of osmotic cell shrinkage-induced NHE1 activity in Amphiuma tridactylum RBC.
The target in assay [20] is T1, Sodium/hydrogen exchanger (Pseudopleuronectes americanus). The experiment in a line: Inhibition of osmotic cell shrinkage-induced NHE1 activity in Pleuronectes americanus RBC upto 100 uM.

Usually IC50 stands for the concentration needed to halve the response being measured.

Calls of active or inactive are those of the source. The rule behind the calls is not given here.

Sodium/hydrogen exchanger 1, sequence (P19634 whole entry): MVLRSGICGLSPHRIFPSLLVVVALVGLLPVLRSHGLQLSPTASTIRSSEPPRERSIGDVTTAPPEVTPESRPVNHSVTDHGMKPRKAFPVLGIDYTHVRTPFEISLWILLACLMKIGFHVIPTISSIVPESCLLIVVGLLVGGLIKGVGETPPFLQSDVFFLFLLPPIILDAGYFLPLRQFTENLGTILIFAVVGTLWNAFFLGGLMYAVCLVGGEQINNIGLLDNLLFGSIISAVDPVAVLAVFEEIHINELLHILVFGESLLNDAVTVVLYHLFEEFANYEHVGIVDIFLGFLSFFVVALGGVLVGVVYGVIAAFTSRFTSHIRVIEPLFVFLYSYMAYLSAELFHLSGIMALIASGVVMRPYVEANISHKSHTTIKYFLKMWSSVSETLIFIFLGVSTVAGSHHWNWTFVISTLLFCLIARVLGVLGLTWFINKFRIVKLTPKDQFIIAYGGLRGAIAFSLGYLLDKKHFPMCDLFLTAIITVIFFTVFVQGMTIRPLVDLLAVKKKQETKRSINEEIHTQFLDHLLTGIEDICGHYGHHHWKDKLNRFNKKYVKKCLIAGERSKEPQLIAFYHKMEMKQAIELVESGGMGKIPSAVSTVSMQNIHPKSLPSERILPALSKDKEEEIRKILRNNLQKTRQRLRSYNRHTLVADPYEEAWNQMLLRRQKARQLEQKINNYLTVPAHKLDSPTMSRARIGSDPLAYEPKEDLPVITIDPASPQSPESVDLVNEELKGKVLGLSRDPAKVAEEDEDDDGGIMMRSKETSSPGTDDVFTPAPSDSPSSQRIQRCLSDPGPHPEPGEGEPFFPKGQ

Consider `N=C(N)NC(=O)c1nc(Cl)c(N)nc1N` [AMILORIDE], for which the outcome in assay [1] and in [9] was inactive. Besides, the IC50 is 98 µM in assay [2]; 491 µM in assay [4]; 137 µM in [5]; 38 µM in assay [6]; 118 µM in [7]. The result in [3] and in assay [8] was Active.
In the case of `CS(=O)(=O)c1cc(C(=O)N=C(N)N)ccc1N1CCCCC1`, the outcome in [10], in assay [11], in assay [12], in assay [13], in assay [15] and in assay [16] was inactive. The outcome in [14], in [17], in [18] and in assay [8] was Active.
In the case of `CCN(c1nc(N)c(C(=O)NC(=N)N)nc1Cl)C(C)C` [5-(N-ETHYL-N-ISOPROPYL)AMILORIDE], the outcome in [19] was Active. For the same compound, the result in [20] was inactive. Besides, the IC50 in assay [2] was 8.7 µM; in assay [14], 0.8 µM; in [4], 37 µM; in assay [5], 11 µM; in [6], 5.8 µM; in [7], 0.92 µM.
For `CC(C)c1ccc(C(=O)N=C(N)N)cc1S(C)(=O)=O`, the result in [12], in assay [13], in assay [15] and in assay [16] was inactive. Moreover, the outcome in [14], in [17], in [18] and in [8] was Active.
